According to ChEMBL document CHEMBL5634191, “Vinylpyridine as a Tunable Covalent Warhead Targeting C797 in EGFR” (ACS Med Chem Lett, 2024):

Assay: Lipophilicity, log D of the compound at pH 7.4
Format: physicochemical
Settings: buffer

Compound | logD
CN(C)C/C=C/C(=O)Nc1cc2c(Nc3ccc(F)c(Cl)c3)ncnc2cc1O[C@H]1CCOC1 [AFATINIB] | 3.6
C=CC(=O)N1CCC(Oc2cc3c(Nc4ccc(Cl)c(Cl)c4F)ncnc3cc2OC)CC1 [POZIOTINIB] | 4.3
C=C(C)c1cc(Oc2cc3c(Nc4cccc(Cl)c4F)ncnc3cc2OC)ccn1 | 4.6
COc1cc2ncnc(Nc3cccc(Cl)c3F)c2cc1Oc1ccnc(/C=C/CN2CCOCC2)c1 | 3.8
C=Cc1cccc(Oc2cc3c(Nc4cccc(Cl)c4F)ncnc3cc2OC)n1 | 4.6
COC/C=C/c1cc(Oc2cc3c(Nc4cccc(Cl)c4F)ncnc3cc2OC)ccn1 | 4.2
C=Cc1ccnc(Oc2cc3c(Nc4cccc(Cl)c4F)ncnc3cc2OC)c1 | 4.6
COc1cc2ncnc(Nc3ccc(F)c(Cl)c3)c2cc1OCCCN1CCOCC1 [GEFITINIB] | 3.8
